Reference: patent US7659113B2 (priority 2002, dated 2010)
“Also recorded” adds a separate entry of the source.

Columns and labels:
wild type FPV M2 = wild type FPV M2 (Influenza A virus, UniProt P03492); assay: cell-based; format: cell-based
influenza virus = details: cited from earlier work
[1] = test system: VSV-G pseudotyped SIN-6.1CZW vector; format: cell-based
[2] = test system: VSV-G pseudotyped SIN-6.1CZW vector; format: cell-based; remark: listed apart in the source
VSV = details: cited from earlier work
[3] = test system: FPV HA/M2 pseudotyped SIN-6.1CZW vector; format: cell-based

wild type FPV M2, sequence (P03492 whole entry, looked up): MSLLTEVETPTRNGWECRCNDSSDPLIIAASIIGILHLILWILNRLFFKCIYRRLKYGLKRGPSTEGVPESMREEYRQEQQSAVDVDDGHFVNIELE

SMILES: NC12CC3CC(CC(C3)C1)C2 [amantadine]
- effect on vector production (wild type FPV M2): inhibits the augmentation of HA pseudotyping by M2; also recorded: potent dose-dependent effect
- inhibition at 5 µM (wild type FPV M2; read-out: inhibition of M2 augmented vector production): 70%
- inhibition of influenza virus replication in cell culture (influenza virus): effective inhibitor
- effect on gene transfer by VSV-G pseudotyped vector [1]: did not affect gene transfer
- effect on pseudotyping of SIN-6.1CZW by VSV-G [2]: did not affect
- VSV replication, sensitivity to amantadine (VSV): refractory
- effect on gene transfer step of HA pseudotyped vector [3]: affected the gene transfer step; also recorded: Higher doses were required to inhibit transduction than to inhibit vector production
